Reference: PubChem BioAssay AID248 (DTP/NCI, 2004)
Several values for one entry are separate records, joined by “and”; a condition that tells them apart may be missing. Identical values can stand only once. Toxic doses and inconclusive results are not listed. No stated cut-off is given here; in the data, active means T/C of 150% or more; inactive means T/C below 125%.

Test system: L1210 leukemia ip in BDF1 mice, survival T/C
Assay: NCI In Vivo Anticancer Drug Screen. Data for tumor model L1210 Leukemia (intraperitoneal) in B6D2F1 (BDF1) mice
Conditions: endpoint: mean survival time, higher = longer survival
Procedure, shortened: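 Transplantable tumor model; survival measured in treated vs vehicle control mice. Value = treated/control.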

[1] = dose: 100.0 mg/kg/injection, schedule: Q01DX001 (ip), vehicle: saline with Tween-80
[2] = dose: 200.0 mg/kg/injection, schedule: Q01DX001 (ip), vehicle: saline with Tween-80
[3] = dose: 400.0 mg/kg/injection, schedule: Q01DX001 (ip), vehicle: saline with Tween-80
[4] = dose: 100.0 mg/kg/injection, schedule: Q04DX003 (ip), vehicle: saline with Tween-80
[5] = dose: 200.0 mg/kg/injection, schedule: Q04DX003 (ip), vehicle: saline with Tween-80
[6] = dose: 400.0 mg/kg/injection, schedule: Q04DX003 (ip), vehicle: saline with Tween-80
[7] = dose: 100.0 mg/kg/injection, schedule: Q01DX009 (ip), vehicle: saline
[8] = dose: 200.0 mg/kg/injection, schedule: Q01DX009 (ip), vehicle: saline
[9] = dose: 25.0 mg/kg/injection, schedule: Q04DX002 (ip), vehicle: saline with Tween-80
[10] = dose: 50.0 mg/kg/injection, schedule: Q01DX001 (ip), vehicle: saline
[11] = dose: 100.0 mg/kg/injection, schedule: Q01DX001 (ip), vehicle: saline
[12] = dose: 200.0 mg/kg/injection, schedule: Q01DX001 (ip), vehicle: saline
[13] = dose: 400.0 mg/kg/injection, schedule: Q01DX001 (ip), vehicle: saline
[14] = dose: 100.0 mg/kg/injection, schedule: Q01DX009 (ip), vehicle: Klucel (hydroxypropylcellulose) (HPC)
[15] = dose: 200.0 mg/kg/injection, schedule: Q01DX009 (ip), vehicle: Klucel (hydroxypropylcellulose) (HPC)
[16] = dose: 400.0 mg/kg/injection, schedule: Q01DX009 (ip), vehicle: Klucel (hydroxypropylcellulose) (HPC)
[17] = dose: 100.0 mg/kg/injection, schedule: Q04DX003 (ip), vehicle: saline
[18] = dose: 200.0 mg/kg/injection, schedule: Q04DX003 (ip), vehicle: saline
[19] = dose: 400.0 mg/kg/injection, schedule: Q04DX003 (ip), vehicle: saline

Measured: T/C

CCOC(=S)c1ccc(S(=O)(=O)NCc2ccccc2)cc1
inactive: [1] 100 % of control | [2] 102 % of control | [3] 100 % of control

CCC(N)(CO)CO
inactive: [4] 98 % of control | [5] 95 % of control | [6] 95 % of control

CN(C)N=Nc1cn(C2OC(CO)C(O)C2O)c(=O)[nH]c1=O (stereo unspecified)
inactive: [7] 111 % of control | [8] 120 % of control

CCC(=O)OC1(c2ccccc2)CCN(CCCc2ccccc2Cl)CC1
inactive: dose: 3.13 mg/kg/injection, schedule: Q04DX002 (ip), vehicle: saline with Tween-80 103 % of control | dose: 6.25 mg/kg/injection, schedule: Q04DX002 (ip), vehicle: saline with Tween-80 106 % of control | dose: 12.5 mg/kg/injection, schedule: Q04DX002 (ip), vehicle: saline with Tween-80 103 % of control | [9] 106 % of control

O=c1c(N=Nc2ccc(Br)cc2)c(O)n(-c2ccc(Cl)cc2)c(=S)n1-c1ccccc1
inactive: dose: 37.5 mg/kg/injection, schedule: Q01DX001 (ip), vehicle: Klucel (hydroxypropylcellulose) (HPC) 107 % of control | dose: 75.0 mg/kg/injection, schedule: Q01DX001 (ip), vehicle: Klucel (hydroxypropylcellulose) (HPC) 108 % of control | dose: 150.0 mg/kg/injection, schedule: Q01DX001 (ip), vehicle: Klucel (hydroxypropylcellulose) (HPC) 104 % of control

CC1CN1c1nc(N2CC2C)nc(N2CC2C)n1 (stereo unspecified)
inactive: dose: 1.56 mg/kg/injection, schedule: Q01DX009 (ip), vehicle: saline 97 % of control | dose: 3.13 mg/kg/injection, schedule: Q01DX009 (ip), vehicle: saline 95 % of control | dose: 5.0 mg/kg/injection, schedule: Q01DX001 (ip), vehicle: saline 100 % of control | dose: 6.25 mg/kg/injection, schedule: Q01DX009 (ip), vehicle: saline 92 % of control | dose: 10.0 mg/kg/injection, schedule: Q01DX001 (ip), vehicle: saline 109 % of control | dose: 12.5 mg/kg/injection, schedule: Q01DX009 (ip), vehicle: saline 87 % of control | dose: 20.0 mg/kg/injection, schedule: Q01DX001 (ip), vehicle: saline 109 % of control

Cc1cn(C2CC(O)C(CO)O2)c(=O)n(Cc2ccccc2)c1=O (stereo unspecified)
inactive: [10] 108 % of control | [11] 108 % of control | [12] 98 % of control | [13] 108 % of control

O=C(c1ccc(Cl)cc1)c1nonc1C(=O)c1ccc(Cl)cc1
inactive: dose: 100.0 mg/kg/injection, schedule: Q01DX001 (ip), vehicle: Klucel (hydroxypropylcellulose) (HPC) 100 % of control | [14] 98 % of control | dose: 200.0 mg/kg/injection, schedule: Q01DX001 (ip), vehicle: Klucel (hydroxypropylcellulose) (HPC) 96 % of control | [15] 95 % of control | dose: 400.0 mg/kg/injection, schedule: Q01DX001 (ip), vehicle: Klucel (hydroxypropylcellulose) (HPC) 100 % of control | [16] 106 % of control

COc1ccccc1C(=O)N/N=C\c1ccc(Cl)cc1Cl
inactive: [7] 111 % of control | [17] 122 % of control | [8] 97 % of control | [18] 103 % of control | dose: 400.0 mg/kg/injection, schedule: Q01DX009 (ip), vehicle: saline 94 % of control | [19] 100 % of control

CON=C1CCC(C(C)(C)C)CC1 (stereo unspecified)
inactive: dose: 75.0 mg/kg/injection, schedule: Q01DX001 (ip), vehicle: carboxymethylcellulose (CMC) 106 % of control

[O-]/[N+](=C\c1cccc(O)c1)c1ccccc1
inactive: [10] 102 % of control | [11] 106 % of control | [12] 102 % of control | [13] 100 % of control

CNC
inactive: [9] 95 % of control | dose: 50.0 mg/kg/injection, schedule: Q04DX002 (ip), vehicle: saline with Tween-80 88 % of control | dose: 100.0 mg/kg/injection, schedule: Q04DX002 (ip), vehicle: saline with Tween-80 88 % of control

C/C(=N\Nc1c(F)c(F)c(F)c(F)c1F)c1ccccc1
inactive: [1] 105 % of control | [2] 96 % of control | [3] 100 % of control

NNc1ccc2c(O)cc(S(=O)(=O)O)cc2c1
inactive: [11] 98 % of control | [17] 103 % of control | [12] 104 % of control | [18] 95 % of control | [13] 107 % of control | [19] 101 % of control

CN1N=C([P+](c2ccccc2)(c2ccccc2)c2ccccc2)CC1(c1ccccc1)c1ccccc1
inactive: dose: 75.0 mg/kg/injection, schedule: Q01DX001 (ip), vehicle: saline 103 % of control | dose: 150.0 mg/kg/injection, schedule: Q01DX001 (ip), vehicle: saline 100 % of control

CC(C)CN(C)N=Nc1ccccc1C(=O)NN
inactive: dose: 50.0 mg/kg/injection, schedule: Q01DX009 (ip), vehicle: saline with Tween-80 100 % of control | dose: 50.0 mg/kg/injection, schedule: Q04DX003 (ip), vehicle: saline with Tween-80 98 % of control | dose: 100.0 mg/kg/injection, schedule: Q01DX009 (ip), vehicle: saline with Tween-80 98 % of control | [4] 98 % of control | dose: 200.0 mg/kg/injection, schedule: Q01DX009 (ip), vehicle: saline with Tween-80 121 % of control | [5] 103 % of control

Clc1ccc(N=Cc2ccc3c(c2)OCO3)c(Cl)c1
inactive: [14] 94 % of control | [15] 93 % of control | [16] 96 % of control

Nc1ccc(S(=O)(=O)Nc2ccc(I)cc2)cc1
inactive: [14] 100 % of control | dose: 100.0 mg/kg/injection, schedule: Q04DX003 (ip), vehicle: Klucel (hydroxypropylcellulose) (HPC) 100 % of control | [15] 96 % of control | dose: 200.0 mg/kg/injection, schedule: Q04DX003 (ip), vehicle: Klucel (hydroxypropylcellulose) (HPC) 97 % of control | [16] 93 % of control | dose: 400.0 mg/kg/injection, schedule: Q04DX003 (ip), vehicle: Klucel (hydroxypropylcellulose) (HPC) 92 % of control

N#CCC(CC#N)C(c1cccc2ccccc12)c1cccc2ccccc12
inactive: dose: 75.0 mg/kg/injection, schedule: Q04DX002 (ip), vehicle: Klucel (hydroxypropylcellulose) (HPC) 94 % of control | dose: 150.0 mg/kg/injection, schedule: Q04DX002 (ip), vehicle: Klucel (hydroxypropylcellulose) (HPC) 101 % of control | dose: 300.0 mg/kg/injection, schedule: Q04DX002 (ip), vehicle: Klucel (hydroxypropylcellulose) (HPC) 90 % of control

NC(CSC(c1ccccc1)(c1ccccc1)c1ccc(C(=O)O)cc1)C(=O)O (stereo unspecified)
inactive: dose: 12.5 mg/kg/injection, schedule: Q01DX009 (ip), vehicle: water 106 % of control | dose: 25.0 mg/kg/injection, schedule: Q01DX009 (ip), vehicle: water 102 % of control and 103 % of control | dose: 50.0 mg/kg/injection, schedule: Q01DX009 (ip), vehicle: water 103 % of control and 100 % of control | dose: 100.0 mg/kg/injection, schedule: Q01DX009 (ip), vehicle: water 101 % of control and 108 % of control | dose: 200.0 mg/kg/injection, schedule: Q01DX009 (ip), vehicle: water 102 % of control | dose: 400.0 mg/kg/injection, schedule: Q01DX009 (ip), vehicle: water 97 % of control and 102 % of control

O=P(C1CCCCC1)(C1CCCCC1)C1CCCCC1
inactive: [14] 89 % of control | [15] 97 % of control

Cc1ccc(S(=O)(=O)N(C)c2ccc(C#N)c3ccccc23)cc1
inactive: [4] 97 % of control | [5] 89 % of control | [6] 90 % of control
